# According to patent US12617773B2, “Azetidin-3-ylmethanol derivatives as CCR6 receptor modulators” (Idorsia Pharmaceuticals Ltd, priority 2020, dated 2026):
# pIC50: −log10 of the molar value.
# Target: T1, human CCR6 (Homo sapiens, UniProt P51684)
# T1 construct: expressed in transfected cells; host or cells: HEK-293
# T1 sequence (P51684 1-374): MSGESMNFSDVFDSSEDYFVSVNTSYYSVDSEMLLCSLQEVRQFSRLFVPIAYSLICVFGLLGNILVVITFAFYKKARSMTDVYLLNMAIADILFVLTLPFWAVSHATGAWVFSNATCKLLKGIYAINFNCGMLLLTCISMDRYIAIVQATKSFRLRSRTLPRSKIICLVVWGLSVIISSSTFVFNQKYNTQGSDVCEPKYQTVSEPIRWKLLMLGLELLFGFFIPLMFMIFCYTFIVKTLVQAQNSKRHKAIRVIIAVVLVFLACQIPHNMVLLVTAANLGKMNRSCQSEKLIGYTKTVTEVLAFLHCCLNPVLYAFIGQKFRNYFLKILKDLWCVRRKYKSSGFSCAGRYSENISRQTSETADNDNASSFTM
# Assay: FLIPR assay (inhibition of CCL20-induced calcium signal)
# Type: cell-based
# Conditions: HEK-293 cells expressing human CCR6; mean values where determined several times; read-out: FLIPR IC50
# In short: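 IC50 values come from baseline-corrected peak calcium fluorescence after agonist. The agonist was CCL20 at 10 nM final, added to engineered human CCR6 HEK-293 cells following a 30-min, room-temperature, dark preincubation with serially diluted compound. Readings were taken in a fluorometric imaging plate reader.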
row,Structure (SMILES),pIC50
1,CC(C)c1ccc([C@](O)(c2cncc(-c3noc([C@@H]4CNC4=O)n3)c2)C2(C)CN(C)C2)cc1 [Example 364],6.85
2,CC(C)c1ccc([C@](O)(c2cncc(-c3noc(C4CCNCC4)n3)c2)C2(C)CN(C)C2)cc1 [Example 367],6.49
3,CC(C)c1ccc([C@](O)(c2cncc(-c3noc(C4(C)CCNCC4)n3)c2)C2(C)CN(C)C2)cc1 [Example 368],6.57
4,CC(C)c1ccc([C@](O)(c2cncc(-c3noc(C4(F)CCNCC4)n3)c2)C2(C)CN(C)C2)cc1 [Example 369],6.73
5,"CCCC(=O)N1CCC(c2nc(-c3cncc([C@@](O)(c4ccc(C(C)C)cc4)C4(C)CN(C)C4)c3)no2)CC1 [Example 370, 1-[4-(3-{5-[(R)-(1,3-Dimethyl-azetidin-3-yl)-hydroxy-(4-isopropyl-phenyl)-methyl]-pyridin-3-yl}-[1,2,4]oxadiazol-5-yl)-piperidin-1-yl]-butan-1-one]",7.18
6,CC(C)c1ccc([C@](O)(c2cncc(-c3noc(C4CCN(C(=O)C(C)(C)C)CC4)n3)c2)C2(C)CN(C)C2)cc1 [Example 371],7.30
7,COCC(=O)N1CCC(c2nc(-c3cncc([C@@](O)(c4ccc(C(C)C)cc4)C4(C)CN(C)C4)c3)no2)CC1 [Example 372],6.99
8,COCCC(=O)N1CCC(c2nc(-c3cncc([C@@](O)(c4ccc(C(C)C)cc4)C4(C)CN(C)C4)c3)no2)CC1 [Example 373],7.05
9,CC(C)c1ccc([C@](O)(c2cncc(-c3noc(C4CCN(C(=O)C5CC5)CC4)n3)c2)C2(C)CN(C)C2)cc1 [Example 374],7.41
10,CC(C)c1ccc([C@](O)(c2cncc(-c3noc(C4CCN(C(=O)C5CCCC5)CC4)n3)c2)C2(C)CN(C)C2)cc1 [Example 375],7.40
11,CC(C)c1ccc([C@](O)(c2cncc(-c3noc(C4CCN(C(=O)C5CCOCC5)CC4)n3)c2)C2(C)CN(C)C2)cc1 [Example 376],6.99
12,CC(C)c1ccc([C@](O)(c2cncc(-c3noc(C4CCN(C(=O)c5ccccc5)CC4)n3)c2)C2(C)CN(C)C2)cc1 [Example 377],7.40
13,COC(=O)N1CCC(c2nc(-c3cncc([C@@](O)(c4ccc(C(C)C)cc4)C4(C)CN(C)C4)c3)no2)CC1 [Example 378],7.26
14,CCOC(=O)N1CCC(c2nc(-c3cncc([C@@](O)(c4ccc(C(C)C)cc4)C4(C)CN(C)C4)c3)no2)CC1 [Example 379],7.39
15,COCCOC(=O)N1CCC(c2nc(-c3cncc([C@@](O)(c4ccc(C(C)C)cc4)C4(C)CN(C)C4)c3)no2)CC1 [Example 380],7.15
16,CC(C)c1ccc([C@](O)(c2cncc(-c3noc(C4CCN(S(C)(=O)=O)CC4)n3)c2)C2(C)CN(C)C2)cc1 [Example 381],7.27
17,CC(C)c1ccc([C@](O)(c2cncc(-c3noc(C4CCN(S(=O)(=O)C(C)C)CC4)n3)c2)C2(C)CN(C)C2)cc1 [Example 382],7.36
18,CCCS(=O)(=O)N1CCC(c2nc(-c3cncc([C@@](O)(c4ccc(C(C)C)cc4)C4(C)CN(C)C4)c3)no2)CC1 [Example 383],7.27
19,COCCS(=O)(=O)N1CCC(c2nc(-c3cncc([C@@](O)(c4ccc(C(C)C)cc4)C4(C)CN(C)C4)c3)no2)CC1 [Example 384],7.38
20,CC(C)c1ccc([C@](O)(c2cncc(-c3noc(C4CCN(S(=O)(=O)CCO)CC4)n3)c2)C2(C)CN(C)C2)cc1 [Example 385],6.93
21,CC(C)c1ccc([C@](O)(c2cncc(-c3noc(C4CCN(S(=O)(=O)C5CCCC5)CC4)n3)c2)C2(C)CN(C)C2)cc1 [Example 386],7.39
22,CC(C)c1ccc([C@](O)(c2cncc(-c3noc(C4CCN(S(=O)(=O)C5CCOCC5)CC4)n3)c2)C2(C)CN(C)C2)cc1 [Example 387],7.26
23,CNS(=O)(=O)N1CCC(c2nc(-c3cncc([C@@](O)(c4ccc(C(C)C)cc4)C4(C)CN(C)C4)c3)no2)CC1 [Example 388],7.55
24,"CNC1(c2nc(-c3cncc([C@@](O)(c4ccc(C(C)C)cc4)C4(C)CN(C)C4)c3)no2)CC1 [Example 389, (R)-(1,3-Dimethyl-azetidin-3-yl)-(4-isopropyl-phenyl)-{5-[5-(1-methylamino-cyclopropyl)-[1,2,4]oxadiazol-3-yl]-pyridin-3-yl}-methanol]",7.24
25,CCOC(=O)N(C)C1(c2nc(-c3cncc([C@@](O)(c4ccc(C(C)C)cc4)C4(C)CN(C)C4)c3)no2)CC1 [Example 390],6.76

row,Structure (SMILES),pIC50
1,CC(C)c1ccc([C@](O)(c2cncc(-c3noc(C4(N(C)S(C)(=O)=O)CC4)n3)c2)C2(C)CN(C)C2)cc1 [Example 391],7.23
2,"CC(C)c1ccc([C@](O)(c2cnnc(OC3CCCC3(C)C)c2)C2(C)CN(C)C2)cc1 (stereo partly drawn) [Example 392, (R)-(1,3-Dimethyl-azetidin-3-yl)-[6-(2,2-dimethyl-cyclopentyloxy)-pyridazin-4-yl]-(4-isopropyl-phenyl)-methanol]",7.62
3,"CC(C)c1ccc([C@](O)(c2cnnc(OC3CCC(F)(F)C3)c2)C2(C)CN(C)C2)cc1 (stereo partly drawn) [Example 393, (R)-[6-(3,3-Difluoro-cyclopentyloxy)-pyridazin-4-yl]-(1,3-dimethyl-azetidin-3-yl)-(4-isopropyl-phenyl)-methanol]",7.60
4,"CC(C)c1ccc([C@](O)(c2cnnc(Oc3ccccc3CCO)c2)C2(C)CN(C)C2)cc1 [Example 394, 2-(2-{5-[(R)-(1,3-Dimethyl-azetidin-3-yl)-hydroxy-(4-isopropyl-phenyl)-methyl]-pyridazin-3-yloxy}-phenyl)-ethanol]",5.98
5,CC(C)c1ccc([C@](O)(c2cnnc(Oc3ccc(CCO)cc3)c2)C2(C)CN(C)C2)cc1 [Example 395],7.22
6,CC(C)c1ccc([C@](O)(c2cnnc(Oc3ccc4c(c3)CCCO4)c2)C2(C)CN(C)C2)cc1 [Example 396],7.46
7,CC(C)c1ccc([C@](O)(c2cnnc(Oc3ccc4[nH]c(=O)oc4c3)c2)C2(C)CN(C)C2)cc1 [Example 397],7.54
8,CCC(O)(C#Cc1cncc([C@@](O)(c2ccc(C(C)C)cc2)C2(C)CN(C)C2)c1)c1cc(C)ncn1 (stereo partly shown) [Example 398],7.29
9,Cc1cc([C@@](C)(O)C#Cc2cncc([C@@](O)(c3ccc(C(C)C)cc3)C3(C)CN(C)C3)c2)ncn1 [Example 399],6.97
10,Cc1cc([C@](C)(O)C#Cc2cncc([C@@](O)(c3ccc(C(C)C)cc3)C3(C)CN(C)C3)c2)ncn1 [Example 400],6.80
11,CC(C)c1ccc([C@](O)(c2cncc(C#CC3(c4ccc(F)cc4)CC3)c2)C2(C)CN(C)C2)cc1 [Example 403],7.39
12,CC(C)c1ccc([C@](O)(c2cncc(C#CC3(O)CCN(C(=O)OC(C)(C)C)C3)c2)C2(C)CN(C)C2)cc1 (stereo partly shown) [Example 406],7.42
13,CC(C)c1ccc([C@](O)(c2cncc(C#CC3CCN(C(=O)OC(C)(C)C)CC3)c2)C2(C)CN(C)C2)cc1 [Example 407],7.29
14,"CCC(O)(CCc1cncc([C@@](O)(c2ccc(C(C)C)cc2)C2(C)CN(C)C2)c1)c1cc(C)ncn1 (stereo partly drawn) [Example 408, 1-{5-[(R)-(1,3-Dimethyl-azetidin-3-yl)-hydroxy-(4-isopropyl-phenyl)-methyl]-pyridin-3-yl}-3-(6-methyl-pyrimidin-4-yl)-pentan-3-ol]",6.86
15,COC(=O)c1ccccc1CCc1cncc([C@@](O)(c2ccc(C(C)C)cc2)C2(C)CN(C)C2)c1 [Example 409],7.31
16,CC(C)c1ccc([C@](O)(c2cncc(CCc3ccccc3CO)c2)C2(C)CN(C)C2)cc1 [Example 410],7.07
17,COc1cc(C(C)(O)CCc2cncc([C@@](O)(c3ccc(C(C)C)cc3)C3(C)CN(C)C3)c2)ncn1 (stereo partly shown) [Example 411],7.06
18,CC(C)c1ccc([C@](O)(c2cncc(CCC3(O)CCN(C(=O)OC(C)(C)C)C3)c2)C2(C)CN(C)C2)cc1 (stereo partly shown) [Example 412],7.05
19,"CC(C)c1ccc([C@](O)(c2cncc(CCc3cc4cccnc4[nH]3)c2)C2(C)CN(C)C2)cc1 [Example 413, (R)-(1,3-Dimethyl-azetidin-3-yl)-(4-isopropyl-phenyl)-{5-[2-(1H-pyrrolo[2,3-b]pyridin-2-yl)-ethyl]-pyridin-3-yl}-methanol]",7.44
20,"CC(C)c1ccc([C@](O)(c2cncc(CCC3CCN(C(=O)OC(C)(C)C)CC3)c2)C2(C)CN(C)C2)cc1 [Example 414, 4-(2-{5-[(R)-(1,3-Dimethyl-azetidin-3-yl)-hydroxy-(4-isopropyl-phenyl)-methyl]-pyridin-3-yl}-ethyl)-piperidine-1-carboxylic acid tert-butyl ester]",7.46
21,CC(C)c1ccc([C@](O)(c2cncc(CCC(C)(O)c3ccccn3)c2)C2(C)CN(C)C2)cc1 (stereo partly shown) [Example 415],7.21
22,CC(C)c1ccc([C@](O)(c2cncc(CCC(O)(c3ccccn3)C3CC3)c2)C2(C)CN(C)C2)cc1 (stereo partly shown) [Example 416],7.83
23,Cc1cncc(C(C)(O)CCc2cncc([C@@](O)(c3ccc(C(C)C)cc3)C3(C)CN(C)C3)c2)c1 (stereo partly shown) [Example 417],6.93
24,"CC(C)c1ccc([C@](O)(c2cnnc(CCC3(O)CCCc4cccnc43)c2)C2(C)CN(C)C2)cc1 (stereo partly drawn) [Example 418, 8-(2-{5-[(R)-(1,3-Dimethyl-azetidin-3-yl)-hydroxy-(4-isopropyl-phenyl)-methyl]-pyridazin-3-yl}-ethyl)-5,6,7,8-tetrahydro-quinolin-8-ol]",6.72
